Assay results published in patent US8119655B2, “Kinase inhibitors” (Takeda Pharmaceutical Company Limited, priority 2005, dated 2012).

Target: T1, AIK (Homo sapiens, UniProt O14965)
T1 sequence (O14965 1-403): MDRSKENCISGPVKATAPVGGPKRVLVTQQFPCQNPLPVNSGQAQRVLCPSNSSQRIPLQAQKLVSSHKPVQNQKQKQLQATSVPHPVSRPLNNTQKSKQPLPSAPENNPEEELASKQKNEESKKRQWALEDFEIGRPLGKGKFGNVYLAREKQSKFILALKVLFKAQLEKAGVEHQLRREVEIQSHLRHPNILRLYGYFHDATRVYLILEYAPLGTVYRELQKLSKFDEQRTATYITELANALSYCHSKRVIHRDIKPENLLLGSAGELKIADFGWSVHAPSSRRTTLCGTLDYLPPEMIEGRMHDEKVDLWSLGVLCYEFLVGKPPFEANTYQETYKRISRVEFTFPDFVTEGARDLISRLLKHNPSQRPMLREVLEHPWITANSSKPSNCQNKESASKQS
Assay: Determination of inhibition of AIK by direct fluorescence polarization (IMAP)
Type: biochemical
Details: FP assay, 2.5 μM ATP, 2.5 nM AIK; read-out: IC50 of Exemplified Compounds Against AIK
Description: The inhibitory properties of compounds relative to AIK may be determined by the Direct Fluorescence Polarization detection method (FP) using a Greiner small volume black 384-well-plate format under the following reaction conditions: 50 mM Hepes pH 7.3, 10 mM MgCl2, 10 mM NaCl, 1 mM DTT, 0.01% Brij35, 100 nM Fluorescein-LRRASLG peptide (provided by SYNPEP), 5% DMSO, 2.5 μM ATP. Detection of the reaction product is performed by addition of IMAP binding reagent (Molecular Devices). Reaction product may be determined quantitatively by FP using an Analyst HT plate reader (Molecular Devices) with an excitation wavelength at 485 nm and emission at 530 nm and using a Fluorescein 505 dichroic mirror.
The assay reaction may be initiated as follows: 2 ul of (3×) 300 nM Fl-Peptide/7.5 uM ATP was added to each well of the plate, followed by the addition of 2 ul of (3×) inhibitor (2.5 fold serial dilutions for 11 data points for each inhibitor) containing 15% DMSO. 2 ul of (3×) 7.5 nM AIK solution may be added to initiate the reaction (final enzyme concentration was 2.5 nM for AIK). The reaction mixture may then be incubated at room temperature for 45 min, and quenched and developed by addition of 20 ul of 1 to 400 diluted IMAP binding reagent in 1× proprietary IMAP binding buffer. Fluorescence polarization readings of the resulting reaction mixtures may be measured after a 60-minute incubation at room temperature.
IC50 values may be calculated by non-linear curve fitting of the compound concentrations and fluorescent polarization values to the standard IC50 equation.

| SMILES | IC50 [µM] |
| --- | --- |
| CCS(=O)(=O)c1cccc(-c2ccc(OCC3CCN(C)CC3)c3[nH]c4ncc(Cl)cc4c23)c1 [Compound 199, 3-chloro-5-(3-(ethylsulfonyl)phenyl)-8-((1-methylpiperidin-4-yl)methoxy)-9H-pyrido[2,3-b]indole] | 0.02 to 0.05 |
| CCS(=O)(=O)c1cccc(-c2cnc(C#N)c3[nH]c4ncc(C)cc4c23)c1 [Compound 48, 5-(3-Ethanesulfonyl-phenyl)-3-methyl-9H-dipyrido[2,3-b;4′,3′-d]pyrrole-8-carbonitrile] | > 0.1 |
| CCS(=O)(=O)c1cccc(-c2cc(F)c(OCCN(C)C)c3[nH]c4ncc(C)cc4c23)c1 [Compound 203, 2-(5-(3-(ethylsulfonyl)phenyl)-7-fluoro-3-methyl-9H-pyrido[2,3-b]indol-8-yloxy)-N,N-dimethylethanamine] | < 0.02 |
| CCS(=O)(=O)c1cccc(-c2cc(C(=O)NCCOCCO)c(C)c3[nH]c4ncc(C)cc4c23)c1 [Compound 110] | < 0.02 |
| Cc1cnc(Nc2cc(Cl)ccc2OCC2CCN(C)CC2)c(Br)c1 [Compound 174, 3-bromo-N-(5-chloro-2-((1-methylpiperidin-4-yl)methoxy)phenyl)-5-methylpyridin-2-amine] | < 0.02 |
| CCS(=O)(=O)c1cccc(-c2cnc(OCC3CCN(C)CC3)c3[nH]c4ncc(C)cc4c23)c1 [Compound 53, 5-(3-Ethanesulfonyl-phenyl)-3-methyl-8-(1-methyl-piperidin-4-ylmethoxy)-9H-dipyrido[2,3-b;4′,3′-d]pyrrole] | < 0.02 |
| Cc1cnc2[nH]c3c(C)c(C(=O)NCCN(C)C)cc(Cl)c3c2c1 [Compound 120, 5-chloro-N-(2-(dimethylamino)ethyl)-3,8-dimethyl-9H-pyrido[2,3-b]indole-7-carboxamide] | > 0.1 |
| CCS(=O)(=O)c1cccc(-c2ccc(OCC3CCN(C)CC3)c(I)c2)c1 [Compound 197, 4-((3′-(ethylsulfonyl)-3-iodobiphenyl-4-yloxy)methyl)-1-methylpiperidine] | < 0.02 |
| Cc1cnc2[nH]c3c(OCC4CCN(C)CC4)ccc(Cl)c3c2c1 [Compound 175, 5-chloro-3-methyl-8-((1-methylpiperidin-4-yl)methoxy)-9H-pyrido[2,3-b]indole] | 0.05 to 0.1 |
| CCS(=O)(=O)c1cccc(-c2cc(C(=O)NCCN(C)C)c(C)c3[nH]c4ncc(C)cc4c23)c1 [Compound 87, N-(2-(dimethylamino)ethyl)-5-(3-(ethylsulfonyl)phenyl)-3,8-dimethyl-9H-pyrido[2,3-b]indole-7-carboxamide] | 0.02 to 0.05 |
| Cc1cnc2[nH]c3c(C)c(C(=O)NCCN(C)C)cc(-c4cccc(NC(=O)C5CC5)c4)c3c2c1 [Compound 111, 5-(3-(cyclopropanecarboxamido)phenyl)-N-(2-(dimethylamino)ethyl)-3,8-dimethyl-9H-pyrido[2,3-b]indole-7-carboxamide] | 0.02 to 0.05 |
| CNS(=O)(=O)c1cccc(-c2ccc(C)c3[nH]c4ncc(C)cc4c23)c1 [Compound 15, 3-(3,8-dimethyl-9H-pyrido[2,3-b]indol-5-yl)-N-methylbenzenesulfonamide] | < 0.02 |
| CCS(=O)(=O)c1cccc(-c2ccc(OC)c3[nH]c4ncc(Cl)cc4c23)c1 [Compound 217] | < 0.02 |
| CCS(=O)(=O)c1cccc(-c2ccc(C)c3[nH]c4ncccc4c23)c1 [Compound 17, 5-(3-(ethylsulfonyl)phenyl)-8-methyl-9H-pyrido[2,3-b]indole] | 0.02 to 0.05 |
| COc1ccc(-c2cccc(NC(C)=O)c2)c2c1[nH]c1ncc(C)cc12 [Compound 161, N-(3-(8-methoxy-3-methyl-9H-pyrido[2,3-b]indol-5-yl)phenyl)acetamide] | 0.05 to 0.1 |
| CCS(=O)(=O)c1cccc(-c2cnc(NCCN(C)C)c3[nH]c4ncc(C)cc4c23)c1 [Compound 41, N′-[5-(3-Ethanesulfonyl-phenyl)-3-methyl-9H-dipyrido[2,3-b;4′,3′-d]pyrrol-8-yl]-N,N-dimethyl-ethane-1,2-diamine] | 0.05 to 0.1 |
| CCOc1ncc(-c2cccc(S(=O)(=O)CC)c2)c2c1[nH]c1ncc(C)cc12 [Compound 50, 5-(3-Ethanesulfonyl-phenyl)-8-ethoxy-3-methyl-9H-dipyrido[2,3-b;4′,3′-d]pyrrole] | < 0.02 |
| COc1ccc(Cl)cc1Nc1ncc(C)cc1Br [Compound 154, 3-bromo-N-(5-chloro-2-methoxyphenyl)-5-methylpyridin-amine] | < 0.02 |
| CCS(=O)(=O)c1cccc(-c2cc(NC(=O)CCN(C)C)c(OC)c3[nH]c4ncc(C)cc4c23)c1 [Compound 240, 3-(dimethylamino)-N-(5-(3-(ethylsulfonyl)phenyl)-8-methoxy-3-methyl-9H-pyrido[2,3-b]indol-7-yl)propanamide] | 0.02 to 0.05 |
